Test results reported in US7951829B2, “Benzimidazole modulators of VR1” (Janssen Pharmaceutica NV, priority 2006, dated 2011).

What was measured:
hVR1 [1] = biological target: T1, hVR1 (Homo sapiens, UniProt Q8NER1); test: Human VR1 (hVR1) Functional Assay (FLIPR intracellular calcium, capsaicin challenge); assay type: cell-based; settings: capsaicin 0.030 μM, HEK293 cells expressing hVR1; for inhibition at 1 µM: test concentration 1 μM
T1 construct: expressed in transfected cells; host or cells: HEK293
T1 sequence (Q8NER1 whole entry): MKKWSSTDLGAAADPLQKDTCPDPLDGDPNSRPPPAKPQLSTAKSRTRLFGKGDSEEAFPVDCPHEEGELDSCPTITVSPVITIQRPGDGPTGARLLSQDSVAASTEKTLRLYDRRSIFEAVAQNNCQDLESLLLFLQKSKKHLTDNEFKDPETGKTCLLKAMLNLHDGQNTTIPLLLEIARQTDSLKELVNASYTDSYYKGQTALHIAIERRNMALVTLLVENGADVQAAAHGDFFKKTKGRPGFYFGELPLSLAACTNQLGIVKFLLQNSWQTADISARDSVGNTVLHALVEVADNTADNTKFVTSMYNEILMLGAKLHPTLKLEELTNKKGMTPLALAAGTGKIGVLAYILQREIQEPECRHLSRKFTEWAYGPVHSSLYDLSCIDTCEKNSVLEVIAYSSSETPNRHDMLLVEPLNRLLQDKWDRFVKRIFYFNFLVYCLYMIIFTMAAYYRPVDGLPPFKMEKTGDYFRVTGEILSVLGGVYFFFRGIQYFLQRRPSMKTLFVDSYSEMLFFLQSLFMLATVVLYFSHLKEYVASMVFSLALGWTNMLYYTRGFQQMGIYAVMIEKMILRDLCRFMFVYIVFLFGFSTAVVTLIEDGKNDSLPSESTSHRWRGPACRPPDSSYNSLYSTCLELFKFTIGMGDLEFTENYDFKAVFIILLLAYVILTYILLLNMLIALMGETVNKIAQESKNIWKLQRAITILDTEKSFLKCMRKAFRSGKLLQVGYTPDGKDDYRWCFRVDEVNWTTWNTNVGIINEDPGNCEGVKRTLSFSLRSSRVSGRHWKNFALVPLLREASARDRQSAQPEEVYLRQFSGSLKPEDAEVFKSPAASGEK

hVR1 [2] = biological target: T1, hVR1; test: Human VR1 (hVR1) Binding Assay ([3H] RTX binding); settings: inhibition of [3H] RTX binding, membranes of HEK293 cells transfected with hVR1

| Compound | IC50 (hVR1 [1]) [nM] | inhibition at 1 µM (hVR1 [1]) [%] | Ki (hVR1 [2]) [nM] |
| --- | --- | --- | --- |
| CC(C)(C)c1ccc(CCc2nc3cc(-c4ccccc4O)ccc3[nH]2)cc1 [Cpd 32, 2-{2-[2-(4-tert-butyl-phenyl)-ethyl]-1H-benzimidazol-5-yl}-phenol] | 380 | 77 | 100 |
| CC(C)(C)c1ccc(/C=C/c2nc3cc(-c4ccccc4CO)c(C(F)(F)F)cc3[nH]2)cc1 [Cpd 51, (E)-(2-{2-[2-(4-tert-butyl-phenyl)-vinyl]-6-trifluoromethyl-1H-benzimidazol-5-yl}-phenyl)-methanol] | 66 | 100 | 6.4 |
| CC(C)c1ccc(/C=C/c2nc3cc(-c4ccccc4NS(C)(=O)=O)ccc3[nH]2)cc1 [Cpd 407, (E)-N-(2-{2-[2-(4-isopropyl-phenyl)-vinyl]-1H-benzimidazol-5-yl}-phenyl)-methanesulfonamide] | 9 | 96 | 5.7 |
| CC(=O)Nc1ccccc1-c1cc2nc(/C=C/c3ccc(C(C)(C)C)cc3)[nH]c2cc1C(F)(F)F [Cpd 50, (E)-N-(2-{2-[2-(4-tert-butyl-phenyl)-vinyl]-6-trifluoromethyl-1H-benzimidazol-5-yl}-phenyl)-acetamide] | 100 | 100 | 16 |
| CC(=O)Nc1ccccc1-c1cc2nc(/C=C/c3ccc(C(F)(F)F)cc3)[nH]c2cc1C(F)(F)F [Cpd 56, (E)-N-(2-{6-trifluoromethyl-2-[2-(4-trifluoromethyl-phenyl)-vinyl]-1H-benzimidazol-5-yl}-phenyl)-acetamide] | 110 | 100 | 120 |
| CC(=O)Nc1ccccc1-c1ccc2[nH]c(/C=C/c3ccc(C(C)(C)C)cc3)nc2c1 [Cpd 4, (E)-N-(2-{2-[2-(4-tert-butyl-phenyl)-vinyl]-1H-benzimidazol-5-yl}-phenyl)-acetamide] | 400 | 78 | 31 |
| NS(=O)(=O)c1ccccc1-c1ccc2[nH]c(/C=C/c3c(F)cccc3Cl)nc2c1 [Cpd 438, (E)-2-{2-[2-(2-chloro-6-fluoro-phenyl)-vinyl]-1H-benzimidazol-5-yl}-benzenesulfonamide] | 71 | 96 | – |
| CC(C)(O)c1ccccc1-c1ccc2[nH]c(/C=C/c3ccccc3)nc2c1 [Cpd 468, (E)-2-[2-(2-styryl-1H-benzimidazol-5-yl)-phenyl]-propan-2-ol] | 8 | 97 | – |
| NS(=O)(=O)c1ccccc1-c1ccc2[nH]c(/C=C/c3ccc(Cl)cc3F)nc2c1 [Cpd 428, (E)-2-{2-[2-(4-chloro-2-fluoro-phenyl)-vinyl]-1H-benzimidazol-5-yl}-benzenesulfonamide] | 7 | 100 | – |
| CNS(=O)(=O)c1ccccc1-c1ccc2[nH]c(CCc3cccc(C(F)(F)F)c3)nc2c1 [Cpd 350, N-methyl-2-{2-[2-(3-trifluoromethyl-phenyl)-ethyl]-1H-benzimidazol-5-yl}-benzenesulfonamide] | 33 | 100 | – |
| NS(=O)(=O)c1ccccc1-c1ccc2[nH]c(C#Cc3ccccc3)nc2c1 [Cpd 490, 2-(2-phenylethynyl-1H-benzimidazol-5-yl)-benzenesulfonamide] | 26 | 99 | – |
| CS(=O)(=O)Nc1ccccc1-c1ccc2[nH]c(/C=C/c3ccc4ccccc4c3)nc2c1 [Cpd 415, (E)-N-{2-[2-(2-naphthalen-2-yl-vinyl)-1H-benzimidazol-5-yl]-phenyl}-methanesulfonamide] | 150 | 95 | – |
| NS(=O)(=O)c1ccccc1-c1ccc2[nH]c(/C=C/c3ccccc3)nc2c1 [Cpd 426, (E)-2-(2-styryl-1H-benzimidazol-5-yl)-benzenesulfonamide] | 22 | 99 | – |
| NS(=O)(=O)c1ccccc1-c1ccc2[nH]c(CCc3ccccc3Cl)nc2c1 [Cpd 402, 2-{2-[2-(2-chloro-phenyl)-ethyl]-1H-benzimidazol-5-yl}-benzenesulfonamide] | 38 | 93 | – |
| NS(=O)(=O)c1ccccc1-c1ccc2[nH]c(CCc3cc(F)cc(C(F)(F)F)c3)nc2c1 [Cpd 421, 2-{2-[2-(3-fluoro-5-trifluoromethyl-phenyl)-ethyl]-1H-benzimidazol-5-yl}-benzenesulfonamide] | 10 | 95 | – |

More lines, now with the values ahead:

| IC50 (hVR1 [1]) [nM] | inhibition at 1 µM (hVR1 [1]) [%] | Ki (hVR1 [2]) [nM] | Compound |
| --- | --- | --- | --- |
| 7 | 98 | 39 | NS(=O)(=O)c1ccccc1-c1ccc2[nH]c(/C=C/c3ccc(F)cc3)nc2c1 [Cpd 434, (E)-2-{2-[2-(4-fluoro-phenyl)-vinyl]-1H-benzimidazol-5-yl}-benzenesulfonamide] |
| 71 | 100 | 17 | CC(C)(C)c1ccc(/C=C/c2nc3cc(-c4ccccc4C(N)=O)ccc3[nH]2)cc1 [Cpd 5, (E)-2-{2-[2-(4-tert-butyl-phenyl)-vinyl]-1H-benzimidazol-5-yl}-benzamide] |
| 1000 | 49 | 380 | Oc1ccccc1-c1ccc2[nH]c(/C=C/c3ccc(C(F)(F)F)cc3)nc2c1 [Cpd 14, (E)-2-{2-[2-(4-trifluoromethyl-phenyl)-vinyl]-1H-benzimidazol-5-yl}-phenol] |
| 2 | 99 | 0.9 | CC(C)(C)c1ccc(/C=C/c2nc3cc(-c4ccccc4NS(C)(=O)=O)ccc3[nH]2)cc1 [Cpd 9, (E)-N-(2-{2-[2-(4-tert-butyl-phenyl)-vinyl]-1H-benzimidazol-5-yl}-phenyl)-methanesulfonamide] |
| 27 | 100 | 9.7 | CC(=O)c1ccccc1-c1ccc2[nH]c(/C=C/c3ccc(C(C)(C)C)cc3)nc2c1 [Cpd 1, (E)-1-(2-{2-[2-(4-tert-butyl-phenyl)-vinyl]-1H-benzimidazol-5-yl}-phenyl)-ethanone] |
| 140 | – | 20 | CC(C)(C)c1ccc(/C=C/c2nc3cc(-c4ccccc4O)ccc3[nH]2)cc1 [Cpd 3, (E)-2-{2-[2-(4-tert-butyl-phenyl)-vinyl]-1H-benzimidazol-5-yl}-phenol] |
| 7 | 100 | 18 | NS(=O)(=O)c1ccccc1-c1ccc2[nH]c(/C=C/c3ccc(Cl)cc3)nc2c1 [Cpd 79, (E)-2-{2-[2-(4-chloro-phenyl)-vinyl]-1H-benzimidazol-5-yl}-benzenesulfonamide] |
| 22 | 99 | 22 | NS(=O)(=O)c1ccccc1-c1ccc2[nH]c(/C=C/c3ccc(S(=O)(=O)C(F)(F)F)cc3)nc2c1 [Cpd 71, (E)-2-{2-[2-(4-trifluoromethanesulfonyl-phenyl)-vinyl]-1H-benzimidazol-5-yl}-benzenesulfonamide] |
| 6 | 100 | 19 | CNS(=O)(=O)c1ccccc1-c1ccc2[nH]c(/C=C/c3ccc(Br)cc3)nc2c1 [Cpd 312, (E)-2-{2-[2-(4-bromo-phenyl)-vinyl]-1H-benzimidazol-5-yl}-N-methyl-benzenesulfonamide] |
| 54 | 99 | 81 | CC(=O)c1ccccc1-c1ccc2[nH]c(/C=C/c3ccc(S(=O)(=O)C(F)(F)F)cc3)nc2c1 [Cpd 40, (E)-1-(2-{2-[2-(4-trifluoromethanesulfonyl-phenyl)-vinyl]-1H-benzimidazol-5-yl}-phenyl)-ethanone] |
| 6 | 98 | 6 | NS(=O)(=O)c1ccccc1-c1ccc2[nH]c(/C=C/c3ccc(OC(F)(F)F)cc3)nc2c1 [Cpd 69, (E)-2-{2-[2-(4-trifluoromethoxy-phenyl)-vinyl]-1H-benzimidazol-5-yl}-benzenesulfonamide] |
| 200 | 98 | – | CC(=O)c1ccccc1-c1ccc2[nH]c(/C=C/c3ccc(SC(F)(F)F)cc3)nc2c1 [Cpd 39, (E)-1-(2-{2-[2-(4-trifluoromethylsulfanyl-phenyl)-vinyl]-1H-benzimidazol-5-yl}-phenyl)-ethanone] |
| 11 | 100 | – | CNS(=O)(=O)c1ccccc1-c1ccc2[nH]c(/C=C/c3ccc(F)cc3)nc2c1 [Cpd 315, (E)-2-{2-[2-(4-fluoro-phenyl)-vinyl]-1H-benzimidazol-5-yl}-N-methyl-benzenesulfonamide] |
| 890 | 58 | – | CC(=O)Nc1ccccc1-c1ccc2[nH]c(/C=C/c3ccc(S(=O)(=O)C(F)(F)F)cc3)nc2c1 [Cpd 43, (E)-N-(2-{2-[2-(4-trifluoromethanesulfonyl-phenyl)-vinyl]-1H-benzimidazol-5-yl}-phenyl)-acetamide] |
| 7 | 98 | – | CS(=O)(=O)c1ccccc1-c1ccc2[nH]c(/C=C/c3ccc(C(F)(F)F)cc3)nc2c1 [Cpd 422, (E)-5-(2-methanesulfonyl-phenyl)-2-[2-(4-trifluoromethyl-phenyl)-vinyl]-1H-benzimidazole] |
| 270 | 89 | – | NC(=O)c1ccccc1-c1ccc2[nH]c(/C=C/c3ccc(SC(F)(F)F)cc3)nc2c1 [Cpd 38, (E)-2-{2-[2-(4-trifluoromethylsulfanyl-phenyl)-vinyl]-1H-benzimidazol-5-yl}-benzamide] |
| > 500 | – | – | CS(=O)(=O)Nc1ccccc1-c1ccc2[nH]c(/C=C/c3ccc(OCC(F)(F)C(F)(F)F)cc3)nc2c1 [Cpd 101, (E)-N-[2-(2-{2-[4-(2,2,3,3,3-pentafluoro-propoxy)-phenyl]-vinyl}-1H-benzimidazol-5-yl)-phenyl]-methanesulfonamide] |
| 45 | 97 | – | NS(=O)(=O)Nc1ccccc1-c1ccc2[nH]c(/C=C/c3ccc(C(F)(F)F)cc3)nc2c1 [Cpd 470, (E)-5-(2-aminosulfonylamino-phenyl)-2-[2-(4-trifluoromethyl-phenyl)-vinyl]-1H-benzimidazole] |
